Reference: patent US9969753B2, “BCR-ABL diploid inhibitor, synthesizing method therefor, and uses thereof” (CHENGDU UNIVERSITY, priority 2014, dated 2018)

Experiments:
[1] = tested on: KBM5 (Bcr-Abl positive) cell subcutaneous implanted tumor; assay: Leukemia subcutaneous xenograft growth inhibition test, KBM5; assay type: in vivo, C57BL/6(Es-1^c) nude mice; details: dosed once a day for two weeks, tumor volume; for inhibitory effect compared with Imatinib in KBM5 subcutaneous tumor model: positive control 160 mg/Kg Imatinib
From the text: According to the test results of the growth inhibition in vitro, assess inhibitory effect of the BGC to transplant subcutaneously in C57BL/6(Es-1^c) nude mice with human leukemia KBM5 cells growth.
Study tumor growth if it can be inhibited, slowed or cured. Twice a week or every other day, use a vernier caliper to measure the tumor size. The calculation formula of tumor volume: V=0.5a×b^2, a, b respectively represent the long and short radius of the tumor.
(§1) Data analysis: T test is used for the comparison between the two groups; one-way ANOVA is used between three or more groups. If there is a significant difference of f value, multiple comparisons should be used additional to ANOVA analysis. Two-way ANOVA is used to analyze potential synergies of combined drug group. All data analysis use SPSS 17.0; p<0.05 is considered with a significant difference.
According to the test results of the growth inhibition in vitro, select the minimum IC50 of the compound BP of the present invention, assess inhibitory effect of the BP to transplant subcutaneously in C57BL/6(Es-1^c) nude mice with human leukemia KBM5 and KBM5R cells growth.
According to the test results of the growth inhibition in vitro, select the minimum IC50 of the compound BDB of the present invention, assess inhibitory effect of the BDB to transplant subcutaneously in C57BL/6(Es-1^c) nude mice with human leukemia KBM5 and KBM5R cells growth.

c-Abl tyrosine kinase = c-Abl tyrosine kinase (Homo sapiens, UniProt P00519); assay: Mobility Shift Assay, inhibition of kinase Abl in vitro; assay type: biochemical; details: 10 concentrations 100 μM to 0.005 μM
Chain of c-Abl tyrosine kinase (P00519 whole entry): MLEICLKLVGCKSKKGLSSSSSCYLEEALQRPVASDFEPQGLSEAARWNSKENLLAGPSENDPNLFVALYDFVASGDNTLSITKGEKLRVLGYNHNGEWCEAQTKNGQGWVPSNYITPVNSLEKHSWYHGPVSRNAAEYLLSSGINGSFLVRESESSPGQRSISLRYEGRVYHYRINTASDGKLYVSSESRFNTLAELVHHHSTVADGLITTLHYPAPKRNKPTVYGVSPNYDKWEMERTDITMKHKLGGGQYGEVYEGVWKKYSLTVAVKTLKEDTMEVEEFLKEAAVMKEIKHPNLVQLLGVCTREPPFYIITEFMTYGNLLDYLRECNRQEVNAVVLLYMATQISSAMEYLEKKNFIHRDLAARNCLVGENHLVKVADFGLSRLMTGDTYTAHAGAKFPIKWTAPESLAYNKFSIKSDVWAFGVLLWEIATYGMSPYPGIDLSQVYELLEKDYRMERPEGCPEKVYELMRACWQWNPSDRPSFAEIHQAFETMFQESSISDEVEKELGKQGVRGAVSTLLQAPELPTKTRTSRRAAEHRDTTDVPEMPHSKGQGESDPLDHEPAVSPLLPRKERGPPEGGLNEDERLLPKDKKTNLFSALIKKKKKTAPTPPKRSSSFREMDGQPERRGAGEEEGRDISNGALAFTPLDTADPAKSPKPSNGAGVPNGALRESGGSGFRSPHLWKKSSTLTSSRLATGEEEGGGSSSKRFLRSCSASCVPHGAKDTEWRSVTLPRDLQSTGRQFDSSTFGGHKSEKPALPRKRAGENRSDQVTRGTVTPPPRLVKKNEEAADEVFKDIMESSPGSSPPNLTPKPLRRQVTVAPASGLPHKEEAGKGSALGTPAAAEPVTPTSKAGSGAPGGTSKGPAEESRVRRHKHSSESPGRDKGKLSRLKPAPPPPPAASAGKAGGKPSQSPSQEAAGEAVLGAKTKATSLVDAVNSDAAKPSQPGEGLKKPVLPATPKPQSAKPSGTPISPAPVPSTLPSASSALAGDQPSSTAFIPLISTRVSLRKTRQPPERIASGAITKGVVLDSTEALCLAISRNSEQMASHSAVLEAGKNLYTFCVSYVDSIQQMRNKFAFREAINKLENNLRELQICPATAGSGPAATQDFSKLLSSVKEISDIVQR
Protocol: (§2) Using the method of mobility Shift Assay, detect activity of the compound BGC with kinase Abl in vitro. The concentration of BGC was diluted from 100 μM with 100% DMSO to 0.005 μM using 3 times dilution method, 10 concentrations in total for detection (2 duplicate) with staurosporine as standard control, set solvent control (10% DMSO) and negative control (EDTA).
(§3) Detect activity of different concentrations of the compound BGC on 384 holes reaction plate by enzyme-linked immune response on the inhibition of the kinase Abl, read the conversion rate data on Caliper, and convert the conversion rate to inhibition rate. Percent inhibition=(max−conversion)/(max−min)*100
Wherein, max is the conversion rate of DMSO control; min refers to the conversion rate of enzyme-free control.
According to inhibition rate of the concentrations, calculate the half inhibitory concentration IC50 of the compound BGC to tyrosine kinase Abl.
as §2, with “Mobility” for “mobility”, “BP” for “BGC”
as §3, with “BP” for “BGC”
Wherein, max is the conversion rate of DMSO control, min refers to the conversion rate of enzyme-free control.
According to inhibition rate of the concentrations, calculate the half inhibitory concentration IC50 of the compound BP to tyrosine kinase c-Abl. […]
Detect activity of different concentrations of the compound BDB on 384 holes reaction plate by enzyme-linked immune response on the inhibition of the kinase Abl, read the conversion rate data on Caliper, and convert the conversion rate to inhibition rate. […]

[2] = tested on: KBM5R (Bcr-Abl T315I mutation) cells; assay: KBM5R tumor growth inhibition test in vitro (ATP method); assay type: cell-based; details: Homo sapiens, 72 hours incubation, read-out: IC50, cytotoxicity to KBM5R cells
Protocol: (§4) Using ATP method to determine the cell toxicity of compound BP of the present invention. Adjust the KBM5 and KBM5R cells to a suitable cell density. 140 ul cell suspensions inoculated each hole on 96-well plate. The vaccination density of each species cell is: 2000-6000; then the cell culture plate is placed in the incubator for 24 hours so that it is attached on the wall holes. Using 3 times dilution method to prepare the solution of BP compound with different concentrations, and add them into the correspond holes on 96-well plate with vaccination in advance, 10 μL of each hole, and its final concentrations are as follows: 100 μM, 33.3 μM, 11.1 μM, 3.70 μM, 1.23 μM, 0.41 μM, 0.14 μM, 0.046 μM, 0.015 μM. Duplicate 3 times of each concentration. After 72 hours incubation in 37° C. incubator, detect the cell proliferation of each hole with ATP method and calculate the drug concentration to median lethal concentration IC50 of KBM5 and KBM5R cells.
Using ATP method to determine the cell toxicity of compound BDB of the present invention. Adjust the KBM5 and KBM5R cells to a suitable cell density. 140 ul cell suspensions inoculated each hole on 96-well plate. The vaccination density of each species cell is: 2000-6000; then the cell culture plate is placed in the incubator for 24 hours so that it is attached on the wall holes. […]

[3] = Preliminary pharmacokinetic study, single intravenous dosage; assay type: in vivo, female C57BL/6(Es-1^c) nude mice; details: female, C57BL/6(Es-1^c) nude, mouse, whole blood; intravenous 1 mg/kg, mice, non-compartmental model
Protocol: Experiment methods and procedures are as follows: female C57BL/6(Es-1^c) nude mice, weight 18-25 g, age 6-8 weeks, other, 3 female C57BL/6(Es-1^c) nude mice for blank samples, prepare for the standard curve for analysis. Intravenous dosage 1 mg/kg, delivery volume 5 mL/kg. Intravenous injection drug solution: DMSO:Solutol HS15:Saline=5:5:90, v/v/v. […] Female C57BL/6(Es-1^c) nude mice after intravenous injection dosage collect about 20 μL bloods from the mouse tail vein at 0.25 h, 2 h, 8 h and 24 h, use K2EDTA anticoagulant. Use steamed water to dilute the blood sample in accordance with volume in 3 times and store the diluted blood sample at −70° C. for analysis.
Data analysis: use WinNonlin (version 6.2) software, based on non-compartmental model to calculate the pharmacokinetic parameters.
Experiment methods and procedures are as follows: female C57BL/6(Es-1^c) nude mice, weight 18-25 g, age 6-8 weeks, other, 3 female C57BL/6(Es-1^c) nude mice for blank samples, prepare for the standard curve for analysis. Intravenous dosage 1 mg/kg, delivery volume 5 mL/kg. Intravenous injection drug solution: DMSO:Solutol HS15:Saline=5:5:90, v/v/v. […] Female C57BL/6(Es-1^c) nude mice after intravenous injection dosage collect about 20 μL blood from the mouse tail vein at 0.25h, 2h, 8h and 24 h, use K2EDTA anticoagulant. Use steamed water to dilute the blood sample in accordance with volume in 3 times and store the diluted blood sample at −70° C. for analysis.
Experiment methods and procedures are as follows: female C57BL/6(Es-1^c) nude mice, weight 18-25 g, age 6-8 weeks, other, 3 female C57BL/6(Es-1^c) nude mice for blank samples, prepare for the standard curve for analysis. Intravenous dosage 1 mg/kg, delivery volume 5 mL/kg.

[4] = tested on: KBM5R (Bcr-Abl T315I mutation) cell subcutaneous implanted tumor; assay: Leukemia subcutaneous xenograft growth inhibition test, KBM5R; assay type: in vivo, C57BL/6(Es-1^c) nude mice; details: dosed once a day for two weeks, tumor volume; Imatinib 160 mg/Kg
From the text: Twice a week or every other day, use a vernier caliper to measure the tumor size. The calculation formula of tumor volume: V=0.5a×b^2, a, b respectively represent the long and short radius of the tumor.
as §1

[5] = tested on: KBM5 (human wild type Bcr-Abl) cells; assay: KBM5 tumor growth inhibition test in vitro (ATP method); assay type: cell-based; details: 72 hours incubation, read-out: IC50, cytotoxicity to KBM5 cells
Protocol: as §4, with “of compound BGC of the” for “of compound BP of the”, “the KBM5 cells to” for “the KBM5 and KBM5R cells to”, “solution of BGC compound with” for “solution of BP compound with”, “with ATP method, and calculate” for “with ATP method and calculate”, “of KBM5 cells.” for “of KBM5 and KBM5R cells.”
as §4
Using ATP method to determine the cell toxicity of compound BDB of the present invention. Adjust the KBM5 and KBM5R cells to a suitable cell density. 140 ul cell suspensions inoculated each hole on 96-well plate. […]

| SMILES | anti-tumor efficacy in KBM5 subcutaneous tumor model [1] | inhibitory effect compared with Imatinib in KBM5 subcutaneous tumor model [1] | IC50 (c-Abl tyrosine kinase) | IC50 [2] | half-life [3] | anti-tumor efficacy in KBM5R subcutaneous tumor model [4] | IC50 [5] |
| --- | --- | --- | --- | --- | --- | --- | --- |
| Cc1ccc(C(=O)Nc2ccc(CN3CCN(CCC(=O)NCCCOCCOCCOCCCNC(=O)CCCC(=O)NCCCOCCOCCOCCCNC(=O)CCN4CCN(Cc5ccc(NC(=O)c6ccc(C)c(C#Cc7cnc8cccnn78)c6)cc5C(F)(F)F)CC4)CC3)c(C(F)(F)F)c2)cc1C#Cc1cnc2cccnn12 [compound BP] | has anti-tumor efficacy | same inhibitory effect with a dosage of 80 mg/kg as Imatinib of 160 mg/kg | 0.01 µM | 5 µM | 3.5 h | has anti-tumor efficacy | 2 µM |
| CO[C@H](C(=O)N1Cc2[nH]nc(NC(=O)c3ccc(CN4CCN(CCC(=O)NCCCOCCOCCOCCCNC(=O)CCCC(=O)NCCCOCCOCCOCCCNC(=O)CCN5CCN(Cc6ccc(C(=O)Nc7n[nH]c8c7CN(C(=O)[C@H](OC)c7ccccc7)C8)cc6)CC5)CC4)cc3)c2C1)c1ccccc1 [compound BDB] | has anti-tumor efficacy | same inhibitory effect with a dosage of 80 mg/kg as Imatinib of 160 mg/kg | 0.05 µM | 8.9 µM | 3.8 h | has anti-tumor efficacy | 7 µM |
| Cc1ccc(NC(=O)c2ccc(CN3CCN(CCC(=O)NCCCOCCOCCOCCCNC(=O)CCCC(=O)NCCCOCCOCCOCCCNC(=O)CCN4CCN(Cc5ccc(C(=O)Nc6ccc(C)c(Nc7nccc(-c8cccnc8)n7)c6)cc5)CC4)CC3)cc2)cc1Nc1nccc(-c2cccnc2)n1 [compound BGC] | has anti-tumor efficacy | same inhibitory effect with a dosage of 350 mg/kg as Imatinib of 160 mg/kg | 0.02 µM |  | 3.5 h |  | 9 µM |
